T/C data for 9 molecules are collected here from PubChem BioAssay AID192 (DTP/NCI, 2004).

Several values for one entry are separate records, joined by “and”; a condition that tells them apart may be missing. Identical values can stand only once. Inconclusive results and toxic doses are left out.

The assay concerns BDF1 mice, B16 melanoma ip, median survival T/C. Nature of the assay: NCI In Vivo Anticancer Drug Screen. Data for tumor model B16 Melanoma (intraperitoneal) in B6D2F1 (BDF1) mice. To be noted: endpoint: median survival time, higher = longer survival. The method, boiled down:
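Antitumor activity is assessed in mice bearing a transplanted tumor, with survival or tumor size compared against vehicle-dosed controls and expressed as T/C.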

[1] abbreviates: dose: 25.0 mg/kg/injection, schedule: Q01DX009 (ip), vehicle: Klucel (hydroxypropylcellulose) (HPC).
Setting [2] is: dose: 50.0 mg/kg/injection, schedule: Q01DX009 (ip), vehicle: Klucel (hydroxypropylcellulose) (HPC).
Setting [3] is: dose: 100.0 mg/kg/injection, schedule: Q01DX009 (ip), vehicle: Klucel (hydroxypropylcellulose) (HPC).
The mark [4] stands for this setting: dose: 200.0 mg/kg/injection, schedule: Q01DX009 (ip), vehicle: Klucel (hydroxypropylcellulose) (HPC).
Setting [5] is: dose: 400.0 mg/kg/injection, schedule: Q01DX009 (ip), vehicle: Klucel (hydroxypropylcellulose) (HPC).
[6] abbreviates: dose: 50.0 mg/kg/injection, schedule: Q01DX009 (ip), vehicle: saline with Tween-80.
Setting [7] is: dose: 100.0 mg/kg/injection, schedule: Q01DX009 (ip), vehicle: saline with Tween-80.

As to `N[C@@H](Cc1ccc(N(CCCl)CCCl)cc1)C(=O)O`, the T/C runs as follows: (dose: 0.06 mg/kg/injection, schedule: Q01DX009 (ip), vehicle: saline) 97 % of control; (dose: 0.12 mg/kg/injection, schedule: Q01DX009 (ip), vehicle: saline) 102 % of control; (dose: 0.25 mg/kg/injection, schedule: Q01DX009 (ip), vehicle: saline) 104 % of control; (dose: 0.5 mg/kg/injection, schedule: Q01DX009 (ip), vehicle: carboxymethylcellulose (CMC)) 95 % of control; (dose: 0.5 mg/kg/injection, schedule: Q01DX009 (ip), vehicle: water) 123 % of control; (dose: 0.75 mg/kg/injection, schedule: Q01DX009 (ip), vehicle: Klucel (hydroxypropylcellulose) (HPC)) 151 % of control. The T/C is, setting by setting: (dose: 0.75 mg/kg/injection, schedule: Q01DX009 (ip), vehicle: saline) 157 % of control; (dose: 1.0 mg/kg/injection, schedule: Q01DX009 (ip), vehicle: carboxymethylcellulose (CMC)) 88 % of control; (dose: 1.0 mg/kg/injection, schedule: Q01DX009 (ip), vehicle: saline with Tween-80) 180 % of control; (dose: 1.0 mg/kg/injection, schedule: Q01DX009 (ip), vehicle: water) 176 % of control; (dose: 1.2 mg/kg/injection, schedule: Q01DX009 (ip), vehicle: saline) 167 % of control; (dose: 1.25 mg/kg/injection, schedule: Q01DX001 (ip), vehicle: water) 123 % of control. Besides, the T/C is, setting by setting: (dose: 1.5 mg/kg/injection, schedule: Q01DX009 (ip), vehicle: Klucel (hydroxypropylcellulose) (HPC)) 188 % of control; (dose: 1.5 mg/kg/injection, schedule: Q01DX009 (ip), vehicle: carboxymethylcellulose (CMC)) 180 % of control; (dose: 1.5 mg/kg/injection, schedule: Q01DX009 (ip), vehicle: saline) 166 % of control and 197 % of control; (dose: 2.0 mg/kg/injection, schedule: Q01DX009 (ip), vehicle: carboxymethylcellulose (CMC)) 95 % of control; (dose: 2.0 mg/kg/injection, schedule: Q01DX009 (ip), vehicle: saline with Tween-80) 254 % of control; (dose: 2.0 mg/kg/injection, schedule: Q01DX009 (ip), vehicle: water) 188 % of control. In addition, the T/C is 164 % of control (dose: 2.5 mg/kg/injection, schedule: Q01DX001 (ip), vehicle: Klucel (hydroxypropylcellulose) (HPC)); 198 % of control (dose: 3.0 mg/kg/injection, schedule: Q01DX009 (ip), vehicle: Klucel (hydroxypropylcellulose) (HPC)); 171 % of control and 262 % of control (dose: 3.0 mg/kg/injection, schedule: Q01DX009 (ip), vehicle: saline); 218 % of control (dose: 3.3 mg/kg/injection, schedule: Q01DX009 (ip), vehicle: saline); 94 % of control (dose: 4.0 mg/kg/injection, schedule: Q01DX009 (ip), vehicle: carboxymethylcellulose (CMC)); 200 % of control (dose: 4.0 mg/kg/injection, schedule: Q01DX009 (ip), vehicle: saline with Tween-80). For the same molecule, the T/C is, setting by setting: (dose: 4.0 mg/kg/injection, schedule: Q01DX009 (ip), vehicle: water) 161 % of control; (dose: 4.0 mg/kg/injection, schedule: Q04DX003 (ip), vehicle: saline) 194 % of control; (dose: 5.0 mg/kg/injection, schedule: Q01DX001 (ip), vehicle: Klucel (hydroxypropylcellulose) (HPC)) 222 % of control; (dose: 5.0 mg/kg/injection, schedule: Q01DX005 (ip), vehicle: saline) 156 % of control; (dose: 6.0 mg/kg/injection, schedule: Q01DX009 (ip), vehicle: carboxymethylcellulose (CMC)) 106 % of control and 117 % of control; (dose: 6.0 mg/kg/injection, schedule: Q01DX009 (ip), vehicle: saline) 118 % of control. Besides, the T/C is 179 % of control (dose: 6.0 mg/kg/injection, schedule: Q04DX003 (ip), vehicle: Klucel (hydroxypropylcellulose) (HPC)); 231 % of control (dose: 8.0 mg/kg/injection, schedule: Q04DX003 (ip), vehicle: saline); 242 % of control (dose: 10.0 mg/kg/injection, schedule: Q01DX001 (ip), vehicle: Klucel (hydroxypropylcellulose) (HPC)); 191 % of control (dose: 10.0 mg/kg/injection, schedule: Q01DX001 (ip), vehicle: water); 194 % of control (dose: 10.0 mg/kg/injection, schedule: Q01DX005 (ip), vehicle: saline); 169 % of control (dose: 12.0 mg/kg/injection, schedule: Q04DX003 (ip), vehicle: Klucel (hydroxypropylcellulose) (HPC)). For the same molecule, where the note is “dose: 16.0 mg/kg/injection, schedule: Q04DX003 (ip), vehicle: saline”, the T/C was 169 % of control.
Regarding `CC(=O)O[C@]1(C(C)=O)CC[C@H]2[C@@H]3C[C@H](C)C4=CC(=O)CC[C@]4(C)[C@H]3CC[C@@]21C`, the T/C is 120 % of control (dose: 12.5 mg/kg/injection, schedule: Q01DX009 (ip), vehicle: Klucel (hydroxypropylcellulose) (HPC)); 117 % of control under setting [1]; 100 % of control under setting [2]; 96 % of control under setting [3]; 89 % of control under setting [4]; 96 % of control under setting [5]. Further, the T/C (dose: 800.0 mg/kg/injection, schedule: Q01DX009 (ip), vehicle: Klucel (hydroxypropylcellulose) (HPC)) was 89 % of control.
With `CN(C)N=Nc1ccc(S(N)(=O)=O)cc1`, the T/C by setting is: under setting [1], 116 % of control; under setting [2], 111 % of control; under setting [3], 98 % of control.
As to `c1cc[c]([Sn]([S][Sn]([c]2ccccc2)([c]2ccccc2)[c]2ccccc2)([c]2ccccc2)[c]2ccccc2)cc1`, the T/C reads like this: under setting [6], 99 % of control; under setting [7], 93 % of control; (dose: 200.0 mg/kg/injection, schedule: Q01DX009 (ip), vehicle: saline with Tween-80) 92 % of control; (dose: 400.0 mg/kg/injection, schedule: Q01DX009 (ip), vehicle: saline with Tween-80) 86 % of control.
For `N#CCCCN1CCCCC1`, the T/C runs as follows: (dose: 6.25 mg/kg/injection, schedule: Q01DX009 (ip), vehicle: saline) 100 % of control; (dose: 12.5 mg/kg/injection, schedule: Q01DX009 (ip), vehicle: saline) 100 % of control; (dose: 25.0 mg/kg/injection, schedule: Q01DX009 (ip), vehicle: saline) 111 % of control.
Turning to `ClC(Cl)=C(Cl)Cl`, the T/C was 105 % of control (dose: 12.5 mg/kg/injection, schedule: Q01DX009 (ip), vehicle: saline with Tween-80); 98 % of control (dose: 25.0 mg/kg/injection, schedule: Q01DX009 (ip), vehicle: saline with Tween-80); 101 % of control under setting [2]; 93 % of control under setting [6]; 99 % of control under setting [3]; 92 % of control under setting [7]. Also, the T/C by setting is: under setting [4], 98 % of control; under setting [5], 88 % of control.
With `CCOC1=CCN(S(=O)(=O)c2ccc(C)cc2)c2ccc(OC)cc21`, the T/C runs as follows: (dose: 100.0 mg/kg/injection, schedule: Q04DX003 (ip), vehicle: Klucel (hydroxypropylcellulose) (HPC)) 102 % of control; (dose: 200.0 mg/kg/injection, schedule: Q04DX003 (ip), vehicle: Klucel (hydroxypropylcellulose) (HPC)) 104 % of control; (dose: 400.0 mg/kg/injection, schedule: Q04DX003 (ip), vehicle: Klucel (hydroxypropylcellulose) (HPC)) 94 % of control.
As for `Clc1ccc(C=Nc2ccc3c(c2)Cc2ccccc2-3)cc1`, the T/C is, setting by setting: under setting [3], 93 % of control; under setting [4], 93 % of control; under setting [5], 96 % of control.
Take `COc1cc2cc(c1Cl)N(C)C(=O)CC(OC(=O)C(C)C)C1(C)OC1C(C)C1CC(O)(NC(=O)O1)C(OC)/C=C/C=C(C)C2` (configuration not stated): the T/C was 124 % of control (dose: 3.1 micrograms/kg/injection, schedule: Q01DX009 (ip), vehicle: saline + alcohol); 169 % of control (dose: 6.25 micrograms/kg/injection, schedule: Q01DX009 (ip), vehicle: saline + alcohol); 150 % of control (dose: 7.0 micrograms/kg/injection, schedule: Q01DX009 (ip), vehicle: saline + alcohol); 152 % of control and 168 % of control (dose: 12.5 micrograms/kg/injection, schedule: Q01DX009 (ip), vehicle: saline + alcohol); 165 % of control (dose: 15.0 micrograms/kg/injection, schedule: Q01DX009 (ip), vehicle: saline + alcohol); 157 % of control and 160 % of control and 165 % of control (dose: 25.0 micrograms/kg/injection, schedule: Q01DX009 (ip), vehicle: saline + alcohol). Also, the T/C runs as follows: (dose: 30.0 micrograms/kg/injection, schedule: Q01DX009 (ip), vehicle: saline + alcohol) 178 % of control; (dose: 50.0 micrograms/kg/injection, schedule: Q01DX009 (ip), vehicle: saline + alcohol) 164 % of control and 176 % of control; (dose: 60.0 micrograms/kg/injection, schedule: Q01DX009 (ip), vehicle: saline + alcohol) 182 % of control.
